Test results: the supplement of paper PMC11451515

System: SEM cells
Assay: cell viability relative to DMSO control; higher = less cytotoxic
Conditions: 48 h
Outline: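 In 1536-well plates, 5 μl of leukemia cells were seeded per well: 500 cells/well for NOMO1 or SEM and 1000 cells/well for P12-Ichikawa. Each line had first been adapted for at least four passages in each medium. Library compounds in DMSO were pin-dosed at 11 threefold concentrations between 47 μM and 0.79 nM, and CellTiter-Glo One luminescence was read after 48 h at 37°C. Viability is a per-plate percentage relative to DMSO wells, with cell-free wells as background.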

[1] = HPLM + 10% dialyzed FBS, 0.000781 µM
[2] = HPLM + 10% dialyzed FBS, 0.00234 µM
[3] = HPLM + 10% dialyzed FBS, 0.00702 µM
[4] = HPLM + 10% dialyzed FBS, 0.0211 µM
[5] = HPLM + 10% dialyzed FBS, 0.0632 µM
[6] = HPLM + 10% dialyzed FBS, 0.19 µM
[7] = HPLM + 10% dialyzed FBS, 0.569 µM
[8] = HPLM + 10% dialyzed FBS, 1.71 µM
[9] = HPLM + 10% dialyzed FBS, 5.12 µM
[10] = HPLM + 10% dialyzed FBS, 15.4 µM
[11] = HPLM + 10% dialyzed FBS, 46.1 µM
[12] = RPMI 5 mM glucose + 10% FBS, 0.000781 µM
[13] = RPMI 5 mM glucose + 10% FBS, 0.00234 µM
[14] = RPMI 5 mM glucose + 10% FBS, 0.00702 µM
[15] = RPMI 5 mM glucose + 10% FBS, 0.0211 µM
[16] = RPMI 5 mM glucose + 10% FBS, 0.0632 µM
[17] = RPMI 5 mM glucose + 10% FBS, 0.19 µM
[18] = RPMI 5 mM glucose + 10% FBS, 0.569 µM
[19] = RPMI 5 mM glucose + 10% FBS, 1.71 µM
[20] = RPMI 5 mM glucose + 10% FBS, 5.12 µM
[21] = RPMI 5 mM glucose + 10% FBS, 15.4 µM
[22] = RPMI 5 mM glucose + 10% FBS, 46.1 µM
[23] = RPMI 5 mM glucose + 10% dialyzed FBS, 0.000781 µM
[24] = RPMI 5 mM glucose + 10% dialyzed FBS, 0.00234 µM
[25] = RPMI 5 mM glucose + 10% dialyzed FBS, 0.00702 µM
[26] = RPMI 5 mM glucose + 10% dialyzed FBS, 0.0211 µM
[27] = RPMI 5 mM glucose + 10% dialyzed FBS, 0.0632 µM
[28] = RPMI 5 mM glucose + 10% dialyzed FBS, 0.19 µM
[29] = RPMI 5 mM glucose + 10% dialyzed FBS, 0.569 µM
[30] = RPMI 5 mM glucose + 10% dialyzed FBS, 1.71 µM
[31] = RPMI 5 mM glucose + 10% dialyzed FBS, 5.12 µM
[32] = RPMI 5 mM glucose + 10% dialyzed FBS, 15.4 µM
[33] = RPMI 5 mM glucose + 10% dialyzed FBS, 46.1 µM

SMILES | cell viability [1] [%] | cell viability [2] [%] | cell viability [3] [%] | cell viability [4] [%] | cell viability [5] [%] | cell viability [6] [%] | cell viability [7] [%] | cell viability [8] [%] | cell viability [9] [%] | cell viability [10] [%] | cell viability [11] [%] | cell viability [12] [%] | cell viability [13] [%] | cell viability [14] [%] | cell viability [15] [%] | cell viability [16] [%] | cell viability [17] [%] | cell viability [18] [%] | cell viability [19] [%] | cell viability [20] [%] | cell viability [21] [%] | cell viability [22] [%] | cell viability [23] [%] | cell viability [24] [%] | cell viability [25] [%] | cell viability [26] [%] | cell viability [27] [%] | cell viability [28] [%] | cell viability [29] [%] | cell viability [30] [%] | cell viability [31] [%] | cell viability [32] [%] | cell viability [33] [%]
OC[C@H]1O[C@H](C[C@@H]1O)N2/C=C(C(=O)NC2=O)/C(F)(F)F | 77.4 | 95.7 | 90.9 | 89.9 | 92.3 | 88.7 | 72.5 | 50.2 | 26.2 | 20.5 | 11.8 | 101 | 104 | 116 | 101 | 109 | 123 | 111 | 103 | 79.5 | 30.4 | 15.5 | 100 | 124 | 111 | 115 | 98.3 | 117 | 93.9 | 66.8 | 22.6 | 15.5 | 10.3
C[C@]12CC[C@H]3[C@@H](CC(=C)\C4=C\C(=O)\C=C/[C@]34C)[C@@H]1CCC2=O | 89.7 | 92.6 | 96.3 | 105 | 107 | 92.8 | 94.4 | 90.7 | 97.8 | 34.9 | 64.8 | 111 | 90.8 | 89.2 | 96.9 | 98 | 95.3 | 104 | 106 | 114 | 36.5 | 54.6 | 98.1 | 86.9 | 96.4 | 110 | 103 | 101 | 115 | 111 | 115 | 33.2 | 59.9
CCCN[C@H]1CCc2nc(N)sc2C1 | 93.2 | 42 | 98.4 | 98.8 | 104 | 96.4 | 95.4 | 99.2 | 104 | 99.8 | 105 | 91.7 | 39.1 | 99.4 | 87.3 | 96.2 | 98.9 | 103 | 97.6 | 85.6 | 105 | 104 | 89.2 | 37.6 | 98.3 | 101 | 119 | 125 | 106 | 105 | 112 | 111 | 91.4
Cc1ccc([C@@H]2O[C@H](CO)[C@@H](O)[C@H](O)[C@H]2O)cc1Cc1ccc(-c2ccc(F)cc2)s1 | 108 | 112 | 117 | 112 | 130 | 114 | 119 | 115 | 110 | 125 | 101 | 109 | 117 | 112 | 122 | 114 | 117 | 123 | 121 | 111 | 118 | 69.5 | 113 | 103 | 106 | 118 | 132 | 119 | 109 | 98.7 | 107 | 116 | 71.2
CCn1nnc2c(N3CCOCC3)nc(-c3ccc(NC(=O)Nc4ccc(C(=O)N5CCN(C)CC5)cc4)cc3)nc21 | 109 | 104 | 87.4 | 82.6 | 61.5 | 58.2 | 103 | 54.3 | 54.1 | 49.8 | 41.9 | 124 | 116 | 90.5 | 81.3 | 64.2 | 56.2 | 114 | 49.5 | 48.4 | 46.4 | 40.5 | 101 | 95.9 | 79 | 71.6 | 60.3 | 54.3 | 123 | 50.8 | 49.5 | 44.9 | 47.8
CCN(CC)CCNC(=O)c1c(C)[nH]c(/C=C2\C(=O)Nc3ccc(F)cc32)c1C | 48 | 47.3 | 43.4 | 53 | 41.8 | 13 | 9.03 | 6.26 | 5.73 | 4.36 | 4.22 | 72.7 | 66.3 | 58.1 | 57 | 34.1 | 10.6 | 9.65 | 6.37 | 5.9 | 3.85 | 4.31 | 52.8 | 42.7 | 42.2 | 44.5 | 27.6 | 9.68 | 9.05 | 6.13 | 5.9 | 3.85 | 3.99
O=C(/C=C/c1ccc(/C=C/C(=O)Nc2ccc(C3=NCCN3)cc2)cc1)Nc1ccc(C2=NCCN2)cc1 | 96.5 | 103 | 101 | 115 | 129 | 118 | 115 | 117 | 103 | 103 | 115 | 93.6 | 104 | 95.5 | 102 | 109 | 99.2 | 110 | 114 | 93.5 | 72.8 | 52.3 | 104 | 120 | 115 | 114 | 109 | 113 | 111 | 120 | 108 | 97.7 | 64.6
NC(=O)c1cccc(-c2cc(Nc3ccc(OC(F)(F)F)cc3)ncn2)c1 | 82.4 | 92.7 | 95.5 | 91.9 | 87.2 | 111 | 101 | 106 | 87.8 | 82 | 69.3 | 105 | 116 | 106 | 111 | 104 | 117 | 112 | 111 | 113 | 101 | 69.1 | 80 | 91.6 | 96.5 | 91.8 | 95 | 98.2 | 96.1 | 104 | 84.8 | 68.9 | 54.1
